From patent US11357779B2 (G1 Therapeutics, Inc., priority 2018, dated 2022)
Entries after “also recorded” stand apart in the source; their conditions may differ.

Tests used:
[1] = Crystallization and slurry experiments, morphic forms of Compound II (XRPD, characterization); assay type: physicochemical; conditions: morphic forms (XRPD patterns) of Compound II
Experimental: Eleven unique XRPD patterns (Form A-Form K) of Compound II were obtained from crystallization and slurry experiments using various solvents.
Forms A, B, and D were evaluated as solid state forms.

[2] = TG and TG-IR analysis of Form B; assay type: physicochemical; conditions: TG-IR
Experimental: The TG analyses were performed using a TA Instrument Q5000 thermogravimetric analyzer. Temperature calibration was performed using nickel and Alumel. The sample was placed in a platinum pan and inserted into the TG furnace. The furnace was heated under a nitrogen purge to 350° C. at a rate of 10° C./min.
Thermogravimetric infrared (TG-IR) analysis was performed on a TA Instruments Q5000 IR thermogravimetric (TG) analyzer interfaced to a Magna-IR 560@ Fourier transform infrared (FT-IR) spectrophotometer (Thermo Nicolet) equipped with an Ever-Glo mid/far IR source, a potassium bromide (KBr) beamsplitter, and a mercury cadmium telluride (MCT-A) detector. The FT-IR wavelength verification was performed using polystyrene, and the TG calibration standards were nickel and Alumel™. The sample was placed in a platinum sample pan and the pan was inserted into the TG furnace. The TG instrument was started first, immediately followed by the FT-IR instrument. The TG instrument was operated under a flow of helium at 90 and 10 cc/minute for the purge and balance, respectively. The furnace was heated under helium at a rate of 20° C./minute to a final temperature of approximately 140° C. IR spectra were collected approximately every 32 seconds for approximately 7.5 minutes. Each IR spectrum represents 32 co-added scans collected at a spectral resolution of 4 cm-1. Volatiles were identified from a search of the High Resolution Nicolet Vapor Phase spectral library.
A TG-IR experiment was carried out on pure Form B (Sample 11 from the small-scale slurry experiments) at […] in an effort to investigate the stability of Form B at elevated temperature by monitoring potential release of hydrogen chloride.

[3] = Dynamic vapor sorption (moisture sorption) experiment; conditions: for % wt change at 60% RH / % wt change at 90% RH: DVS; for stability in the moisture sorption experiment (XRPD of dried sample): after DVS; for stability in the moisture sorption experiment (XRPD of dried sample) / XRPD (post DVS): dried at 60° C. and 0% RH; for XRPD (post DVS): after moisture sorption experiment
Experimental: Dynamic vapor sorption experiments were performed on Form A, Form B, and Form D. Table 103 provides the results of the DVS experiment.

[4] = Stability study under thermal stress, 60° C. for 7 days; assay type: physicochemical
Experimental: Forms A, B, and D were stored in an oven maintained at 60° C. for 7 days.

[5] = Vacuum drying experiments of Form B; assay type: physicochemical; conditions: for Weight Loss (calculated by weight before and after drying): Vacuum oven
[6] = Vacuum drying experiments of Form B; assay type: physicochemical; conditions: for Weight Loss (calculated by weight before and after drying): Vacuum oven; for XRPD Result: after Vacuum oven
From the text: Weighted amounts of impure Form B and pure Form B samples from the previous experiments (Samples 14, 8, 11, 19, 21, and 23) were vacuum dried at ambient or elevated temperatures using various vacuum levels from approximately 14 in Hg up 27-28 in Hg. The resulting materials were weighted out prior to submission for XRPD analysis.
The XRPD pattern of the resulting material was consistent with Form B, however, tiny shifting in a few peak positions in the XRPD pattern was observed (FIG. 26).

[7] = Solubility estimate by aliquot addition with visual observation; assay type: physicochemical
Experimental: Solubility estimates of impure Form B were attempted in various predominantly HCl acidic aqueous acetone solvent mixtures using an aliquot addition method that involved visual observation. Aliquots of various solvents or diluent/organic solvent mixtures were added to measured amounts of impure Form B with agitation (typically sonication) at ambient temperature until complete dissolution was achieved, as judged by visual observation. Solubilities were calculated based on the total solvent used to give a solution; actual solubilities may be greater because of the volume of solvent portions utilized or a slow rate of dissolution. […] If dissolution occurred at the first aliquot, the value was reported as “>”. Due to the haziness of the obtained samples, effective solubility estimates were difficult to discern.

[8] = 0.1M HCl:acetone 20:80, ambient
[9] = 0.5M HCl:acetone 10:90, ambient
[10] = 0.5M HCl:acetone 20:80, ambient
[11] = 1.0M HCl:acetone 75:25, ambient

## CC(C)N1CCN(c2ccc(Nc3ncc4cc5n(c4n3)C3(CCCCC3)CNC5=O)nc2)CC1.Cl.Cl [A]
[1]
  Possible Form: Hydrate

## CC(C)N1CCN(c2ccc(Nc3ncc4cc5n(c4n3)C3(CCCCC3)CNC5=O)nc2)CC1.Cl.Cl [B]
[1]
  Possible Form: Hydrate

## CC(C)N1CCN(c2ccc(Nc3ncc4cc5n(c4n3)C3(CCCCC3)CNC5=O)nc2)CC1.Cl.Cl [C]
[1]
  Possible Form: EtOAc

## CC(C)N1CCN(c2ccc(Nc3ncc4cc5n(c4n3)C3(CCCCC3)CNC5=O)nc2)CC1.Cl.Cl [Compound II, Form B]
[2]; 0.38 min, 36.60 ° C.
  Weight (%): 99.93%
[2]; 0.55 min, 40.20 ° C.
  Weight (%): 99.87%
[2]; 0.73 min, 43.80 ° C.
  Weight (%): 99.77%
[2]; 0.90 min, 47.40 ° C.
  Weight (%): 99.63%
[2]; 1.08 min, 51.00 ° C.
  Weight (%): 99.46%
[2]; 1.25 min, 54.60 ° C.
  Weight (%): 99.26%
[2]; 1.43 min, 58.20 ° C.
  Weight (%): 99.03%
[2]; 1.61 min, 61.80 ° C.
  Weight (%): 98.79%
[2]; 1.78 min, 65.40 ° C.
  Weight (%): 98.52%
[2]; 1.96 min, 69.00 ° C.
  Weight (%): 98.22%
[2]; 2.14 min, 72.60 ° C.
  Weight (%): 97.86%
[2]; 2.32 min, 76.20 ° C.
  Weight (%): 97.44%
[2]; 2.50 min, 79.80 ° C.
  Weight (%): 96.95%
[2]; 2.68 min, 83.40 ° C.
  Weight (%): 96.45%
[2]; 2.86 min, 87.00 ° C.
  Weight (%): 95.97%
[2]; 3.04 min, 90.60 ° C.
  Weight (%): 95.57%
[2]; 3.23 min, 94.20 ° C.
  Weight (%): 95.23%
[2]; 3.41 min, 97.80 ° C.
  Weight (%): 94.95%
[2]; 3.59 min, 101.40 ° C.
  Weight (%): 94.71%
[2]; 3.77 min, 105.00 ° C.
  Weight (%): 94.50%
[2]; 3.95 min, 108.60 ° C.
  Weight (%): 94.32%
[2]; 4.13 min, 112.20 ° C.
  Weight (%): 94.18%
[2]; 4.31 min, 115.80 ° C.
  Weight (%): 94.06%
[2]; 4.68 min, 123.00 ° C.
  Weight (%): 93.86%
[2]; 4.86 min, 126.60 ° C.
  Weight (%): 93.78%
[2]; 5.04 min, 130.20 ° C.
  Weight (%): 93.71%
[2]; 5.22 min, 133.80 ° C.
  Weight (%): 93.65%

## CC(C)N1CCN(c2ccc(Nc3ncc4cc5n(c4n3)C3(CCCCC3)CNC5=O)nc2)CC1.Cl.Cl [D]
[1]
  Possible Form: Hydrate

## CC(C)N1CCN(c2ccc(Nc3ncc4cc5n(c4n3)C3(CCCCC3)CNC5=O)nc2)CC1.Cl.Cl [E]
[1]
  Possible Form: Acetone

## CC(C)N1CCN(c2ccc(Nc3ncc4cc5n(c4n3)C3(CCCCC3)CNC5=O)nc2)CC1.Cl.Cl [F]
[1]
  Possible Form: Unstable

## CC(C)N1CCN(c2ccc(Nc3ncc4cc5n(c4n3)C3(CCCCC3)CNC5=O)nc2)CC1.Cl.Cl [Form A]
[3]; 60% RH
  moisture adsorbed: 14.9 wt %
  % wt change at 60% RH: 14.9 % wt
[3]; 90% RH
  moisture adsorbed: 15.8 wt %
  % wt change at 90% RH: 15.8 % wt
[3]
  stability in the moisture sorption experiment (XRPD of dried sample): unstable; also recorded: not stable
  XRPD (post DVS): Form K
[4]
  XRPD pattern after thermal stress: A new pattern was found; also recorded: converted to a new Form

## CC(C)N1CCN(c2ccc(Nc3ncc4cc5n(c4n3)C3(CCCCC3)CNC5=O)nc2)CC1.Cl.Cl [Form C]
[4]
  XRPD pattern after thermal stress: remained unchanged

## CC(C)N1CCN(c2ccc(Nc3ncc4cc5n(c4n3)C3(CCCCC3)CNC5=O)nc2)CC1.Cl.Cl [Form D]
[3]; 60% RH
  moisture adsorbed: 4.4 wt %
  % wt change at 60% RH: 4.4 % wt
[3]; 90% RH
  % wt change at 90% RH: 17.0 % wt
[3]
  stability in the moisture sorption experiment (XRPD of dried sample): unstable; also recorded: not stable
  XRPD (post DVS): Form K
[4]
  XRPD pattern after thermal stress: No change in the XRPD pattern

## CC(C)N1CCN(c2ccc(Nc3ncc4cc5n(c4n3)C3(CCCCC3)CNC5=O)nc2)CC1.Cl.Cl [G]
[1]
  Possible Form: Anhydrate

## CC(C)N1CCN(c2ccc(Nc3ncc4cc5n(c4n3)C3(CCCCC3)CNC5=O)nc2)CC1.Cl.Cl [H]
[1]
  Possible Form: n-PrOH

## CC(C)N1CCN(c2ccc(Nc3ncc4cc5n(c4n3)C3(CCCCC3)CNC5=O)nc2)CC1.Cl.Cl [Sample 8]
[5]; ~40° C., 15 h (~29.5 in Hg)
  Weight Loss (calculated by weight before and after drying): Weight loss: 7.4%
[5]; after Vacuum oven, ~40° C., 15 h (~29.5 in Hg)
  XRPD Result: New crystalline

## CC(C)N1CCN(c2ccc(Nc3ncc4cc5n(c4n3)C3(CCCCC3)CNC5=O)nc2)CC1.Cl.Cl [Sample 11]
[6]; 22° C., 0.5 h (~14 in Hg)
  Weight Loss (calculated by weight before and after drying): Weight loss: 1.8%
  XRPD Result: Form B tiny peak

## CC(C)N1CCN(c2ccc(Nc3ncc4cc5n(c4n3)C3(CCCCC3)CNC5=O)nc2)CC1.Cl.Cl [Sample 14]
[5]; 23° C., 2 h (~29.5 in Hg)
  Weight Loss (calculated by weight before and after drying): Weight loss: 6.8%
[5]; ~40° C., 15 h (~29.5 in Hg)
  Weight Loss (calculated by weight before and after drying): Weight loss: 7.5%

## CC(C)N1CCN(c2ccc(Nc3ncc4cc5n(c4n3)C3(CCCCC3)CNC5=O)nc2)CC1.Cl.Cl [Sample 19]
[6]; RT, 1.0 h (~27-28 in Hg)
  Weight Loss (calculated by weight before and after drying): Weight loss: 9.7%
  XRPD Result: Form B + broad

## CC(C)N1CCN(c2ccc(Nc3ncc4cc5n(c4n3)C3(CCCCC3)CNC5=O)nc2)CC1.Cl.Cl [Sample 21]
[6]; 22° C., 0.5 h (~28 in Hg)
  Weight Loss (calculated by weight before and after drying): Weight loss: 30.6%

## CC(C)N1CCN(c2ccc(Nc3ncc4cc5n(c4n3)C3(CCCCC3)CNC5=O)nc2)CC1.Cl.Cl [Sample 23]
[6]; 22° C., 1.0 h (~27-28 in Hg)
  Weight Loss (calculated by weight before and after drying): Weight loss: 4.7%
  XRPD Result: Most likely Form B

## CC(C)N1CCN(c2ccc(Nc3ncc4cc5n(c4n3)C3(CCCCC3)CNC5=O)nc2)CC1.Cl.Cl [impure Form B]
[7]; [8]
  Observation: solids remained
  Solubility: <1000 µg/mL
[7]; [9]
  Observation: solids remained
  Solubility: <1000 µg/mL
[7]; [10]
  Observation: solids remained
  Solubility: <1000 µg/mL
[7]; 1M HCl:acetone 5:95, ambient
  Observation: solids remained
  Solubility: <1000 µg/mL
[7]; 1M HCl:acetone 10:90, ambient
  Observation: solids remained
  Solubility: <1000 µg/mL
[7]; 1M HCl:acetone 20:80, ambient
  Observation: solids remained
  Solubility: <1000 µg/mL
[7]; 1M HCl:acetone 33:67, ambient
  Observation: hazy solution
  Solubility: 2000 µg/mL
[7]; 1M HCl:acetone 50:50, ambient
  Observation: hazy solution
  Solubility: 4000 µg/mL
[7]; 1M HCl:acetone 60:40, ambient
  Observation: hazy solution
  Solubility: 4000 µg/mL
[7]; 1M HCl:acetone 67:33, ambient
  Observation: hazy solution
  Solubility: 6000 µg/mL
[7]; [11]
  Observation: hazy solution
  Solubility: 7000 µg/mL
[7]; 2.0M HCl, ambient
  Observation: hazy solution
  Solubility: 4000 µg/mL
[7]; 5.0M HCl, ambient
  Observation: hazy solution
  Solubility: 3000 µg/mL
[7]; 5.0M HCl:water 1:2, ambient
  Observation: clear solution
  Solubility: 7000 µg/mL
[7]; HCl acidic aqueous acetone solvent mixtures, ambient temperature, visual estimate
  Solubility: 3000 to 7000 µg/mL
[7]; Water, ambient
  Observation: solids remained
  Solubility: <7000 µg/mL
[7]; Water:acetone 1:2, ambient
  Observation: hazy solution
  Solubility: 3000 µg/mL
[7]; Water:acetone 3:1, ambient
  Observation: solids remained
  Solubility: <3000 µg/mL
